The test deals with PBMCs from HCMV seropositive subjects. Description: ex vivo IFN-γ Fluorospot assay. It is filed as cell-based, human. The conditions noted are these: 19 HCMV seropositive subjects, individual peptide 10 ug/ml, 20 hr; for No. of subjects responding: IFN-γ; for Magnitude of response: IFN-γ spots (FIG. 1: SFC/10^6 PBMC; no unit in table). The method, then: To define the targets of HCMV-specific T cell epitopes recognized in healthy adults, the inventors screened PBMCs of 19 subjects, 10 males and 9 females, recruited from San Diego blood bank (SDBB). The HCMV seropositivity of all the subjects was confirmed by IgG ELISA (FIG. 6A). A total of 2593 HCMV peptides covering a total of 563 ORFs (1) were tested. However, as many of these predicted ORFs overlapped 100% with others, as they were internal to longer ORFs, these 563 contained 359 completely unique ORFs composed of ˜150“canonical” ORFs, and an additional ˜200 identified by ribosomal RNA profiling (1). These peptides corresponded to predicted dominant epitopes, based on a bioinformatic method that predicts promiscuous binding to HLA class II molecules (40). Each of the ORFs above was covered by multiple predicted epitopes (with a minimum of at least 2), with the exception of very small ORFs (less than 15-20 amino acid residues), in which case at least one peptide was synthetized. The 2593 peptides were arranged in 89 pools of 28-30 15-mer peptides. PBMC reactivity of each of the 89 pools was assayed directly ex vivo using an IFN-γ Fluorospot assay.
For the initial CMV ORF screen, the responses of 19 CMV-seropositive subjects were evaluated. PBMCs were stimulated with 89 pools covering 563 ORFs of HCMV. Each pool comprised of 28-30 15-mer peptides overlapping by 10 residues. PBMCs that were found reactive to a pool were further tested against individual peptides contained in the pool using IFN-γ Fluorospot assay.
PBMC were thawed, washed and counted for viability using the trypan blue exclusion method. 200,000 cells were plated in triplicates and stimulated with pools (2 ug/ml) or peptides (10 ug/ml), PHA (10 ug/ml) or medium containing equivalent amount of DMSO in 96-well plates (Immubilion-P, Millipore) previously coated with anti IFN-γ antibody (1-DIK, Mabtech, Stockholm, Sweden). After 20 hr incubation at 37° C., cells were discarded and wells were washed six times with PBS/0.05% Tween 20 using an automated plate washer and further incubated with IFN-γ antibody (7-B6-1-FS-BAM) for 2 hrs at room temperature. After incubation, wells were washed and incubated with fluorophore conjugated anti-BAM-490 antibody for 1 hr at room temperature. Finally, the plates were washed and incubated with fluorescence enhancer for 15 min, blotted dry and fluorescent spots were counted by computer assisted image analysis (IRIS Fluorospot reader, Mabtech, Sweden).
Each pool or peptide was considered positive compared to the background that had equivalent amount of DMSO based on the following criteria: (i) 20 or more spot forming cells (SFC) per 10^6 PBMC after background subtraction, (ii) the stimulation index greater than 2, and (iii) p<0.05 by student's t test or Poisson distribution test

The text below walks through data of US20250332249A1, “CYTOM[…] CELL EPITOPES AND USES THEREOF” (LA JOLLA INSTITUTE FOR IMMUNOLOGY, priority 2021, published 2025).

Where no end group is shown, it is not given here.

183 (IAITMVMRFWQYING) [compound 183]: the “No. of subjects responding” value is 3 and the Magnitude of response is 163.

8 (AITLFFFLLALRIPQ) [compound 8]: the “No. of subjects responding” value came out at 1 and the Magnitude of response was found to be 207.

76 (QLQFTYDTLRGYINR) [compound 76]: the “No. of subjects responding” value was 3 and the Magnitude of response is on record as 2236.

Regarding 201 (TAYKAFLWKYAKKLN) [compound 201], the “No. of subjects responding” value worked out at 1 and the Magnitude of response is 503.

As for 151 (DPLLRLSQVAGSGRR) [compound 151], the “No. of subjects responding” value amounted to 2 and the Magnitude of response came out at 2067.

94 (SFYLVNAMSRNLFRV) [compound 94]: the “No. of subjects responding” value is reported as 1 and the Magnitude of response worked out at 43.

For the substance 141 (LRVTFHRVKPTLQRE) [compound 141], the “No. of subjects responding” value came to 2 and the Magnitude of response was 830.

For 214 (MLVVTVFDTTRLFEI) [compound 214], the “No. of subjects responding” value was 1 and the Magnitude of response is 840.

In the case of 200 (LSVRYLSLTAYMLLA) [compound 200], the “No. of subjects responding” value is on record as 1 and the Magnitude of response stood at 1200.

As for 32 (TGLVLLLLLLVVRLL) [compound 32], the “No. of subjects responding” value amounted to 1 and the Magnitude of response turned out to be 1440.

Consider 231 (YNRMVRFIINYVGKW) [compound 231], for which the “No. of subjects responding” value is 1 and the Magnitude of response was determined as 23.

232 (ITFCLYVGQFLAYVR) [compound 232]: the “No. of subjects responding” value was 1 and the Magnitude of response turned out to be 27.

On to “118 (RPKRRVVAPFRVAAA; ends and bridges not checked) [compound 118]”, for which the “No. of subjects responding” value turned out to be 2 and the Magnitude of response came out at 283.

For the substance 99 (LFIIAFFSREPTKDL) [compound 99], the “No. of subjects responding” value was determined as 1 and the Magnitude of response came out at 190.

For “41 (GMKTVAFDLSSPQKS; ends and bridges not checked) [compound 41]”, the “No. of subjects responding” value is 1 and the Magnitude of response amounted to 193.

73 (NLNCMVTITTARSKY) [compound 73]: the “No. of subjects responding” value worked out at 2 and the Magnitude of response stood at 4810.

23 (DFLRVVRQQDAFICT) [compound 23]: the “No. of subjects responding” value was found to be 2 and the Magnitude of response turned out to be 174.

Take 6 (GAGLRQLRQQLTVRW) [compound 6]: the “No. of subjects responding” value worked out at 1 and the Magnitude of response is 20.

As for 88 (SLLILVVLLLIYRCC) [compound 88], the “No. of subjects responding” value came out at 1 and the Magnitude of response came out at 23.

Take 100 (PKSFTLTRIHPEYIV) [compound 100]: the “No. of subjects responding” value worked out at 2 and the Magnitude of response is on record as 340.

Consider 230 (IVVGLPFFLEYAKHH) [compound 230], for which the “No. of subjects responding” value was determined as 2 and the Magnitude of response stood at 1250.

Turning to 31 (ARNLMEFARVGLRAV) [compound 31], the “No. of subjects responding” value came to 1 and the Magnitude of response is on record as 1450.

Turning to 153 (RATGNFRSTSLYAAV) [compound 153], the “No. of subjects responding” value worked out at 3 and the Magnitude of response is given as 4220.

Take 59 (MPVQRLTVNVARCVF) [compound 59]: the “No. of subjects responding” value is 1 and the Magnitude of response is reported as 20.

With 148 (AGLMMMRRMRRAPAE) [compound 148], the “No. of subjects responding” value is 1 and the Magnitude of response was found to be 490.

As for 197 (DRLSTLAATMCMFDY) [compound 197], the “No. of subjects responding” value stood at 1 and the Magnitude of response is given as 53.

On to 195 (SLDRFIVQYLNTLLI) [compound 195], for which the “No. of subjects responding” value stood at 8 and the Magnitude of response worked out at 23368.

For the substance 92 (MQKYFSLDNFLHDYV) [compound 92], the “No. of subjects responding” value stood at 2 and the Magnitude of response is given as 20343.

On to 157 (HLGWQTLSNHVIRRL) [compound 157], for which the “No. of subjects responding” value was 1 and the Magnitude of response was 127.

72 (QLMPDDYSNTHSTRY) [compound 72]: the “No. of subjects responding” value was 5 and the Magnitude of response was found to be 45517.

On to “35 (RAHIQKFERLHVRRF; ends and bridges not checked) [compound 35]”, for which the “No. of subjects responding” value is 1 and the Magnitude of response was 2523.

With “49 (GRLMEVRQRNGRLRR; ends and bridges not checked) [compound 49]”, the “No. of subjects responding” value worked out at 1 and the Magnitude of response is reported as 30.

For the substance “47 (LTLRRTIGTLSRLVP; ends and bridges not checked) [compound 47]”, the “No. of subjects responding” value is recorded as 1 and the Magnitude of response is reported as 163.

Regarding 181 (SPVAAELPHPSPAPM) [compound 181], the “No. of subjects responding” value is 2 and the Magnitude of response is 166.

Take 205 (VVAYVILERLWLAAR) [compound 205]: the “No. of subjects responding” value worked out at 1 and the Magnitude of response was found to be 23.

Regarding 89 (LSYMKYHHLHGLPVN) [compound 89], the “No. of subjects responding” value amounted to 3 and the Magnitude of response is 879.

Take 81 (YLFKRMIDLSSISTV) [compound 81]: the “No. of subjects responding” value is reported as 1 and the Magnitude of response came to 67.

Regarding 10 (MLGIRAMLVMLDYYW) [compound 10], the “No. of subjects responding” value was 1 and the Magnitude of response is recorded as 350.

Take 102 (GALTLVIPSWHVFAS) [compound 102]: the “No. of subjects responding” value is 2 and the Magnitude of response is given as 190.

Regarding 80 (ASCVTINQTSVKVLR) [compound 80], the “No. of subjects responding” value is 5 and the Magnitude of response stood at 8941.

202 (WKYAKKLNYHYFRLR) [compound 202]: the “No. of subjects responding” value is listed as 1 and the Magnitude of response amounted to 237.

With “38 (RRTVLFNELMLWLGY; ends and bridges not checked) [compound 38]”, the “No. of subjects responding” value is listed as 1 and the Magnitude of response was found to be 180.

Take 178 (YRNMIIHAATPVDLL) [compound 178]: the “No. of subjects responding” value is 2 and the Magnitude of response came out at 130.

Consider 189 (HVRLLSYRGDPLVFK) [compound 189], for which the “No. of subjects responding” value turned out to be 3 and the Magnitude of response worked out at 333.

For 203 (VYLWYVRRQLVAFCL) [compound 203], the “No. of subjects responding” value turned out to be 3 and the Magnitude of response is given as 253.

Consider 152 (LPLCSTARLRLAPRR) [compound 152], for which the “No. of subjects responding” value was 1 and the Magnitude of response is on record as 467.

As for 168 (CSPDEIMSYAQKIFK) [compound 168], the “No. of subjects responding” value was 2 and the Magnitude of response is on record as 194.

As for 116 (RVTGLVFSVVFSVSL) [compound 116], the “No. of subjects responding” value came to 4 and the Magnitude of response is on record as 6380.

For 9 (ALFTHFVGRPRHCRL) [compound 9], the “No. of subjects responding” value worked out at 1 and the Magnitude of response is given as 57.

As to “46 (SYRSTYIILLLTWFA; ends and bridges not checked) [compound 46]”, the “No. of subjects responding” value is given as 3 and the Magnitude of response came out at 3990.

Consider 20 (IINYYYVAQKKARHM) [compound 20], for which the “No. of subjects responding” value is on record as 1 and the Magnitude of response worked out at 163.

On to 67 (TDLIRFERNIVCTSM) [compound 67], for which the “No. of subjects responding” value is 3 and the Magnitude of response is 273.

Regarding 71 (RRSYAYIHTTYLLGS) [compound 71], the “No. of subjects responding” value turned out to be 5 and the Magnitude of response is given as 2730.
